Results on 5 compounds are retold here after PMC7281403, “Regulation of Tumor Immunity by Lysophosphatidic Acid” (Cancers, 2020).

Read-outs that look alike come from different tables or passages of the source.

The subject of data set [1] is ATX. On the set-up: method as in PMID 34788605. The following applies: TILs from melanoma patients and peripheral CD8+ T cells; cited from earlier work.
In another data set the test system is CD8+ T cells. The arrangement: method as in PMID 31231367. The note with it: cited from earlier work.
Data set [2] has as its target T1, LPAR5 (Homo sapiens, UniProt Q9H1C0). Kind of data set: β-arrestin recruitment in LPAR5 expressing CHO-K1 cells. The following applies: LPA-induced β-arrestin recruitment, IC50 ± SD, NE = No effect, listed as TC-LPA5-4. The arrangement: expressed in transfected cells. It counts as cell-based. The source says: (§1) As an example, inhibition of LPAR5 in distinct cell types, such as CD8^+ T cells could help boost its immunosurveillance activity against cancer and impede metastasis. There is currently no FDA-approved LPA receptor antagonist for cancer therapy. […] We obtained both TC-LPA5-4 and UA-02-085 and tested for LPAR5 antagonism in two independent assays: Ca^2+ mobilization and β-Arrestin recruitment. […] AGP is present in several tissues and biological fluids including tumor ascites, atherosclerotic plaques, aqueous humor of the eye, and in platelet rich plasma. Thus, alkyl-LPA might have multiple actions in the TME as well as the cancer cells. […] We included as a positive control, Amgen35, a compound originally discovered by AMGEN investigators to be a LPAR2 antagonist with an IC50 of 0.8 µM [136]. The AMGEN publication predated the discovery of the LPAR4-6. […] Amgen35 has also been reported to have off-target effects in vivo [136]. […] The other putative LPAR5 antagonist compound, AS2727638, reported by Astellas Pharma in Japan, has only been characterized at LPAR1-3 but not at the other LPAR with high homology of LPAR5 [121].
For orientation: Arrestin recruitment assays detect the binding of arrestin to an activated receptor.

Data set [3] deals with T1, LPAR5. In words: Ca2+ mobilization in LPAR5 expressing B103 cells. Format: cell-based. On the set-up: expressed in transfected cells; host or cells: B103 cells.
Source text: as §1

The target of data set [4] is ATX (Homo sapiens, UniProt Q13822). Kind of data set: ATX activity, fluorescent FS-3 substrate assay. Format: biochemical. The note with it: IC50 ± SD.
On the set-up of data set [5]: method as in PMID 15172836. The following applies: cited from earlier work.
Data set [6] deals with LPAR1. On the set-up: method as in PMID 11160288. The note with it: cited from earlier work.
Data set [7] deals with LPAR1. On the set-up: method as in PMID 9525886. The note with it: Jurkat T cells, LPAR1 plus SRE-driven luciferase reporter; cited from earlier work.
The test system of another data set is Jurkat cell line. On the set-up: method as in PMID 7775587. The note with it: cotreatment with PMA compared to PMA alone; cited from earlier work.
Data set [8] addresses T2, LPAR2 (Homo sapiens, UniProt Q9HBW0). The arrangement: method as in PMID 9525886. The note with it: Jurkat T cells, LPAR2 plus SRE-driven luciferase reporter; cited from earlier work.
A further data set has as its system lymphocyte. The arrangement: method as in PMID 11024010, PMID 11160288. The note with it: bell shape dose-response curve dropping off above 1 µM; cited from earlier work.
In data set [9] the target is T2, LPAR2. On the set-up: method as in PMID 11160288. The following applies: LPA 10^−9–10^−6 M, anti-LPAR2 MAb 30–300 ng/mL; cited from earlier work.

T1 sequence (Q9H1C0 whole entry, species assumed): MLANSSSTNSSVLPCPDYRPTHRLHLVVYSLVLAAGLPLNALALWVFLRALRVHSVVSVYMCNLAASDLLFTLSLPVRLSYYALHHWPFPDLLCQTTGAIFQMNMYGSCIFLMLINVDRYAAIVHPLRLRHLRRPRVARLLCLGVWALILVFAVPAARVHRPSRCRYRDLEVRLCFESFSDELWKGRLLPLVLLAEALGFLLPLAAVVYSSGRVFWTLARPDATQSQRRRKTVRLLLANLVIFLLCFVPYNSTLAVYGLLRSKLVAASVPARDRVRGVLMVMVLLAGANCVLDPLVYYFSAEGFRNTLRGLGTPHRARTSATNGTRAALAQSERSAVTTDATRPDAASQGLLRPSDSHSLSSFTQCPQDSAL
T2 sequence (Q9HBW0 whole entry, species assumed): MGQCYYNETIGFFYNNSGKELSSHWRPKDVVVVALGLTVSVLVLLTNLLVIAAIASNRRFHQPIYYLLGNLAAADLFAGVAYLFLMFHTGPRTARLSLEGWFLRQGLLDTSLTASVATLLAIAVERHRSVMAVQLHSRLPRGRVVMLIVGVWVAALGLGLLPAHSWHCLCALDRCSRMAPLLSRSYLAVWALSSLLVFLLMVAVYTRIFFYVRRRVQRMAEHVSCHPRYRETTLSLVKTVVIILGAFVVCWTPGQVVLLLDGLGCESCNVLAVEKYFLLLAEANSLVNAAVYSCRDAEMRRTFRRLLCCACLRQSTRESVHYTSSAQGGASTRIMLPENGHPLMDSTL

Consider `C[C@H](NC(=O)CCc1nc2cccnc2n1Cc1ccc(OC(F)(F)F)cc1)c1ccc(Cl)cc1` [IOA-289], for which the “effect of conditioned media from ATX-expressing tumor cells on T cell migration in presence of ATX inhibitor” value in the data set on ATX [1] is “failed to inhibit the migration of T cells”.

`CCCCCCCCCCCCCCCCCCOP(O)(O)=S` [OTP, octadecyl thiophosphate]: the “in vitro tumor cell killing function” value with CD8+ T cells (mouse and human CD8+ T cells) is “decreased in vitro tumor cell killing function”. For the same compound, the granule exocytosis result in the data set on CD8+ T cells (stimulation of CD8+ T cells) is reported as “impaired granule exocytosis”.

`O=C(CCN1CCN(C(=O)OCc2cc(Cl)cc(Cl)c2)CC1)c1ccc2[nH]c(=O)oc2c1` [PF-8380]: the “effect of conditioned media from ATX-expressing tumor cells on T cell migration in presence of ATX inhibitor” value with ATX [1] is given as “failed to inhibit the migration of T cells”.

As to `COc1cccc(-n2nc(C(=O)O)cc2-c2ccc(C3CCCCC3)c(Cl)c2)c1` [TC-LPA-5], the “LPAR5 IC50 (β-arrestin)” value on LPAR5 [2] was “inactive”. The “LPAR5 IC50 (Ca^2+ Mobilization)” value on LPAR5 [3] (LPA-induced Ca2+ mobilization, LPAR5 expressing B103 cells, IC50 ± SD, NE = No effect, listed as TC-LPA5-4) is “inactive”. The “Inhibition of AGP-induced Ca^2+ mobilization” value on LPAR5 [3] (agonist alkyl glycerophosphate (AGP), unpublished) is “failed to inhibit”. This compound registered an IC50 on ATX [4] of 7.1 ± 0.6 µM.

For lysophosphatidic acid [LPA], the critical micellar concentration in [5] (acyl group myristoyl) is on record as 1.850 mM; in data set [5] (acyl group oleoyl), 0.346 mM; in data set [5] (acyl group palmitoyl), 0.540 mM; in data set [5] (acyl group stearoyl) it was 0.082 mM. In the data set with LPAR1 [6], the “migratory response in LPAR1 Jurkat transfectants” value is “neither LPA nor the anti-LPAR1 MAb induced a migratory response”. Moreover, the LPA-dependent luciferase expression is recorded as 5 fold over control in the data set on LPAR1 [7] and 20 fold over control on LPAR2 [8]. Further, in the data set on Jurkat cell line, the “increase in IL-2 secretion” value was “five-fold”. The “concentration of maximal efficiency in modulating lymphocyte responses” value with lymphocyte is given as 10^−10 to 10^−8 M. The “transmigration of LPAR2 Jurkat transfectants” value on LPAR2 [9] is reported as “stimulated the transmigration”.

In general, IC50 refers to the concentration that gives 50% inhibition.
